{"source": "patent US11684614B2", "about": "“Formulations of hydroxypyridonate actinide/lanthanide decorporation agents” (priority 2017, dated 2023)", "experiment": "Repeated-treatment efficacy for removing an intravenous dose of 238Pu (excretion, tissue retention, clinical observations), female and male arms", "type": "in vivo, Swiss-Webster mice", "conditions": "for % Recovered Dose - Feces per Day: male mice, listed as 3,4,3-LI(1,2-HOPO)", "description": "The objective of this study was to characterize the efficacy of 3,4,3-L1(1,2-HOPO) at enhancing elimination from an internal plutonium burden in female and male Swiss-Webster mice administered a soluble citrate complex of ^238Pu and treated multiple times, starting at 24 hours after the exposure. Efficacy was evaluated by comparing the tissue contents, urinary and fecal excretions of ^238Pu in treated animals versus untreated animals.\nThe medical countermeasure 3,4,3-L1(1,2-HOPO) was administered parenterally (ip) or orally (po) via consecutive injections or gavages (six daily or twelve twice daily) starting at 24 hours post contamination at the following four selected doses: 30 μmol/kg ip, 150 μmol/kg po, 300 μmol/kg po, and 600 μmol/kg po (equivalent to respective approximate human doses range of […], using the accepted conversion system of mouse doses into human equivalent doses—HED—based on body surface area). Oral doses also included the permeability enhancer selected during formulation development work.\n• Challenge isotope: ^238Pu • Challenge dose: 25 nCi (i.e., approximately 0.8 μCi/kg) • Route of contamination: Intravenous (iv) tail-vein • Route of treatment: Intraperitoneal Injection (ip) or Oral (po) • Frequency of treatment: Multiple (once- or twice-daily for 6 days) doses, starting 24 hr postcontamination • Treatment dose calculation: Dose calculations (mg/kg or μmol/kg) for the decorporation agent were based on the individual body weight measured after contamination. • Study Duration: 11 days, in-life\nc. […] Test article and control dose formulations were prepared within 1 day of dose administration, by weighing out the appropriate amount of test article, dispersing in vehicle. For ip solutions, the test article was used alone, while for oral suspensions, a mixture of test article and excipient (90:10, w:w) was used. The pH was adjusted to 7.0-7.4 for ip administration and 5.0-5.5 for oral administration with sterile NaOH. Dose formulations were prepared at room temperature and filter-sterilized. • Storage: 2-8° C.; refrigerated; protected from light. • Characterization: The concentration of each test article formulation was verified by high-performance liquid chromatography-mass spectrometry. • Test Article Handling: Test, reference, and control article formulations were handled with the use of eye protection, gloves, and a protective laboratory coat. • Correct Dose Assurance: The test article was weighed with calibrated balances. The administration of each dose formulation was properly documented, and the amount administered to each animal recorded.\ne. Experimental Procedures (In-Life Evaluations and Euthanasia) • Contamination: Single administration by intravenous (iv) tail-vein injection (0.2 mL injection volume) under isoflurane anesthesia. Three standard 0.2 mL injections were performed into polyethylene bottles and pre-loaded with aliquots of concentrated nitric acid on each injection day. Six female and six male mice were culled for necropsy 1 hr post-contamination and were used as standards. A11 standards were processed and counted together with the final samples to allow verification of the contamination dose. • Dose Administration: Single administration by intraperitoneal injection (ip) or oral gavage (po) under isoflurane anesthesia. • Mortality/Morbidity: Assessed at least once daily. • Clinical Observations: Recorded once daily (4 hr post-dose on day of treatment), or more often as clinical signs warranted. […]", "note": "“And” between values parts separate entries of the source, which are not always exact repeats. Equal values may be shown once.", "data": [{"smiles": "O=C(NCCCN(CCCCN(CCCNC(=O)c1cccc(=O)n1O)C(=O)c1cccc(=O)n1O)C(=O)c1cccc(=O)n1O)c1cccc(=O)n1O", "note": "[3,4,3-L1(1,2-HOPO)]", "values": [{"measurement": "% Recovered Dose - Feces per Day", "setting": "group I, feces day 1, Day 11 necropsy", "value": "9.44% and 11.73% and 10.15% and 5.92% and 9.00% and 6.11% and 8.55% and 9.19%"}, {"measurement": "% Recovered Dose - Feces per Day", "setting": "group I, feces day 3, Day 11 necropsy", "value": "7.33% and 7.00% and 5.92% and 6.28% and 9.54% and 7.12% and 7.60% and 4.73%"}, {"measurement": "% Recovered Dose - Feces per Day", "setting": "group I, feces day 4, Day 11 necropsy", "value": "4.73% and 4.29% and 4.45% and 3.39% and 5.21% and 4.16% and 3.65% and 3.13%"}, {"measurement": "% Recovered Dose - Feces per Day", "setting": "group I, feces day 5, Day 11 necropsy", "value": "2.15% and 1.67% and 2.13% and 2.90% and 1.73% and 2.06% and 1.56% and 2.26%"}, {"measurement": "% Recovered Dose - Feces per Day", "setting": "group I, feces day 6, Day 11 necropsy", "value": "1.96% and 1.64% and 1.89% and 2.15% and 2.00% and 1.56% and 1.92% and 1.66%"}, {"measurement": "% Recovered Dose - Feces per Day", "setting": "group I, feces day 7, Day 11 necropsy", "value": "1.48% and 2.52% and 0.83% and 1.51% and 0.94% and 1.29% and 1.15% and 1.02%"}, {"measurement": "% Recovered Dose - Feces per Day", "setting": "group I, feces day 8, Day 11 necropsy", "value": "0.86% and 0.84% and 0.55% and 0.76% and 1.22% and 0.87%"}, {"measurement": "% Recovered Dose - Feces per Day", "setting": "group I, feces day 9, Day 11 necropsy", "value": "0.53% and 0.71% and 0.43% and 0.64% and 0.57% and 0.47% and 0.49%"}, {"measurement": "% Recovered Dose - Feces per Day", "setting": "group I, feces day 10, Day 11 necropsy", "value": "0.46% and 0.52% and 0.43% and 0.45% and 0.40% and 0.47% and 0.36%"}, {"measurement": "% Recovered Dose - Feces per Day", "setting": "group I, feces day 11, Day 11 necropsy", "value": "0.47% and 0.38% and 0.37% and 0.43% and 0.48% and 0.44% and 0.50%"}, {"measurement": "% Recovered Dose - Feces per Day", "setting": "group L, feces day 2, Day 11 necropsy", "value": "9.49% and 10.37% and 11.59% and 15.06% and 13.00% and 13.15% and 16.38% and 8.84%"}, {"measurement": "% Recovered Dose - Feces per Day", "setting": "group L, feces day 3, Day 11 necropsy", "value": "2.02% and 3.23% and 3.48% and 4.47% and 2.87% and 3.37% and 4.43% and 2.71%"}, {"measurement": "% Recovered Dose - Feces per Day", "setting": "group L, feces day 4, Day 11 necropsy", "value": "1.98% and 2.69% and 3.71% and 6.81% and 3.67% and 4.04% and 3.55% and 3.76%"}, {"measurement": "% Recovered Dose - Feces per Day", "setting": "group L, feces day 5, Day 11 necropsy", "value": "1.04% and 1.47% and 2.57% and 2.42% and 1.75% and 1.82% and 2.26% and 1.72%"}, {"measurement": "% Recovered Dose - Feces per Day", "setting": "group L, feces day 6, Day 11 necropsy", "value": "3.32% and 1.94% and 2.97% and 2.78% and 2.36% and 3.15% and 2.15% and 2.74%"}, {"measurement": "% Recovered Dose - Feces per Day", "setting": "group L, feces day 7, Day 11 necropsy", "value": "1.56% and 1.72% and 1.53% and 1.45% and 2.10% and 1.44% and 1.80% and 1.29%"}, {"measurement": "% Recovered Dose - Feces per Day", "setting": "group L, feces day 8, Day 11 necropsy", "value": "1.03% and 1.27% and 1.54% and 1.58% and 1.33% and 1.26% and 1.23% and 0.92%"}, {"measurement": "% Recovered Dose - Feces per Day", "setting": "group L, feces day 9, Day 11 necropsy", "value": "0.88% and 0.94% and 0.96% and 0.57% and 1.17% and 1.08% and 0.78%"}, {"measurement": "% Recovered Dose - Feces per Day", "setting": "group L, feces day 10, Day 11 necropsy", "value": "0.60% and 0.98% and 0.96% and 0.65% and 0.99% and 1.01% and 1.02% and 0.90%"}, {"measurement": "% Recovered Dose - Feces per Day", "setting": "group L, feces day 11, Day 11 necropsy", "value": "0.63% and 0.89% and 0.79% and 0.66% and 0.87% and 0.84%"}, {"measurement": "% Recovered Dose - Feces per Day", "setting": "group M, feces day 2, Day 11 necropsy", "value": "16.84% and 15.20% and 15.54% and 13.29% and 15.04% and 19.29% and 14.53% and 19.54%"}, {"measurement": "% Recovered Dose - Feces per Day", "setting": "group M, feces day 3, Day 11 necropsy", "value": "4.32% and 6.13% and 4.17% and 2.65% and 4.16% and 6.33% and 4.24% and 3.82%"}, {"measurement": "% Recovered Dose - Feces per Day", "setting": "group M, feces day 4, Day 11 necropsy", "value": "3.42% and 4.94% and 4.01% and 4.02% and 6.06% and 4.40% and 3.22% and 2.93%"}, {"measurement": "% Recovered Dose - Feces per Day", "setting": "group M, feces day 5, Day 11 necropsy", "value": "1.00% and 2.50% and 1.52% and 1.62% and 1.76% and 1.90% and 1.20% and 1.08%"}, {"measurement": "% Recovered Dose - Feces per Day", "setting": "group M, feces day 6, Day 11 necropsy", "value": "10.71% and 2.32% and 2.47% and 1.70% and 3.63% and 2.41% and 1.58% and 1.99%"}, {"measurement": "% Recovered Dose - Feces per Day", "setting": "group M, feces day 7, Day 11 necropsy", "value": "5.02% and 2.31% and 1.09% and 1.15% and 1.51% and 1.35% and 0.86% and 1.01%"}, {"measurement": "% Recovered Dose - Feces per Day", "setting": "group M, feces day 8, Day 11 necropsy", "value": "1.81% and 1.55% and 1.22% and 0.94% and 1.24% and 2.07% and 0.87% and 1.10%"}, {"measurement": "% Recovered Dose - Feces per Day", "setting": "group M, feces day 9, Day 11 necropsy", "value": "1.01% and 1.12% and 0.73% and 0.57% and 0.96% and 0.64% and 0.76%"}, {"measurement": "% Recovered Dose - Feces per Day", "setting": "group M, feces day 10, Day 11 necropsy", "value": "0.48% and 0.47% and 0.92% and 0.59% and 0.65% and 1.22% and 0.76% and 0.85%"}, {"measurement": "% Recovered Dose - Feces per Day", "setting": "group M, feces day 11, Day 11 necropsy", "value": "0.57% and 0.46% and 0.82% and 0.41% and 0.70% and 1.12% and 0.68% and 1.01%"}, {"measurement": "increase in total 238Pu excretion compared to the control groups", "setting": "male, 6 daily oral treatments, 600 μmol/kg, 11 days post-contamination", "value": "up to 156%"}, {"measurement": "tissue content of 238Pu compared to saline control group", "setting": "male, all analyzed tissues, all dosing regimens", "value": "large reductions"}, {"measurement": "full body content of 238Pu compared to saline control groups", "setting": "male, all treated groups", "value": "significant reductions"}, {"measurement": "decrease in body burden compared to the control groups", "setting": "male, once-daily oral 600 μmol/kg, 11 days post-contamination", "value": "up to 48%"}, {"measurement": "decorporation efficacy relative to parenteral DTPA", "setting": "male, oral once-daily 300 and 600 μmol/kg", "value": "equivalent to that of parenteral treatment with DTPA"}, {"measurement": "238Pu elimination enhancement", "setting": "male, oral twice-daily 150 and 300 μmol/kg or once-daily 300 and 600 μmol/kg, 7 days post-contamination", "value": "significant"}]}]}
